What was measured:
Type in all cases: cell-based
[1] = tested on: THP1-Dual KO-TREX1 cells; experiment: THP1 TREX1 KO inhibition assay (type 1 interferon response); details: Homo sapiens, 144 h, type 1 interferon (QUANTI-LUC), 1 μM 5-aza-2′-deoxycytidine, six days
Description: Exemplary compounds were tested for their ability to alter the type 1 interferon response in THP1 Dual TREX1 KG cells treated with 5-aza-2′-deoxycytidine. Assay procedures and results are described below.
THP1 Dual TREX1 KG cells were purchased from Invivogen. The THP1-Dual™ KO-TREX1 cells were cultured in RPMI 1640, 10% heat-inactivated fetal bovine serum, 25 mM HEPES, 10 μg/mL blasticidin, and 100 μg/mL zeocin. THP1-Dual™ KO-TREX1 cells were treated with a dose titration of a test compound alone or in the presence of 1 μM 5-aza-2′-deoxycytidine (Sigma-Aldrich, cat #189825). Type 1 Interferon and cell viability were assessed after six days of treatment.
Stock solution of the test compound was prepared in DMSO followed by a three-fold dilution in DMSO. Additional 50× dilution was prepared in cell culture media for each dilution. 10 μL of diluted test compound was then added to a 96-well plate.
THP1-Dual™ KO-TREX1 cells were treated with either 1×PBS or 1 μM 5-aza-2′-deoxycytidine. […] of the THP1-Dual™ KO-TREX1 cells from either treatment were added to each well of the 96-well plate containing the test compound titration at 50,000 cells/well. Cells were incubated at 37° C., 5% CO2 in a humidified incubator for six days. Cells treated with 1 μM 5-aza-2′-deoxycytidine were added at the same density as above and incubated at 37° C., 5% CO2 in a humidified incubator for six days. On day six, 25 μL of cell supernatant was transferred to a 96-well white-walled plate, followed by addition to each well of 50 μL of QUANTI-LUC solution containing stabilizer. Luminescence was detected on a plate reader according to the manufacturer's instructions.
The remaining cells were assessed for cell viability by adding 25 μL of CellTiter-Glo (Promega, G9683) solution to each well, and being placed on a shaker for 10 minutes at room temperature. Luminescence was detected on a plate reader, according to the manufacturer's instructions.
In the tables “A” represents values≤0.050 μM; “B” represents values from >0.050 μM to ≤0.100 μM; “C” represents values from >0.100 μM to ≤0.250 μM; “D” represents values from >0.250 μM to ≤1 μM; “E” represents values>1 μM; and “NT”=not tested: […]

[2] = Mitochondria toxicity assay with PC3 cells, in-cell ELISA COX-1; details: 5 days treatment
Description: (§1) Exemplary compounds were tested for inhibition of expression of mitochondria DNA encoded proteins COX-1 […]. SDH-A (succinate dehydrogenase-A) is a control mitochondria protein encoded by nuclear DNA. Reduction in COX-1 expression indicates off target inhibition of mitochondria DNA synthesis which leads to mitochondrial toxicity. Assay procedures and results are described below.
(§2) PC3 cells were purchased from ATCC and cultured in F-12 Kaighn's modified medium (Hyclone), 10% heat-inactivated fetal bovine serum (Invitrogen), 1% Penicillin-Streptomycin (Invitrogen). PC3 cells were treated with a dose titration of a test compound on 96 well plates for 5 days at 37° C., 5% CO2 in a humidified incubator. The treatment plates are duplicated, one for in-cell ELISA for mitochondria proteins and one for cytotoxicity.
(§3) In-cell ELISA was performed to measure mitochondrial proteins using MitoBiogenesis In-Cell ELISA kit (Abcam) per manufacturer's instruction. The medium was aspirated from the compound treated cells, 100 μl per well of 4% paraformaldehyde (Solarbio) was added and cells were incubated at room temperature for 20 minutes. The cells were washed three times with PBS. 100 μl of 0.5% acetic acid was added per cell, and the cells were incubate at room temperature for 5 minutes. Cells were washed once with PBS. 100 μl per well of Permeabilization Buffer was added, and the cells incubate at room temperature for 30 minutes. The permeabilization buffer was removed and 200 μl per well 2× Blocking Buffer was added and the cells were incubated at room temperature for 2 hours. After removing the Blocking Buffer 100 μl per well of primary antibody to SDH-A or COX-1 was added, and the cells were incubated at 4° C. overnight. The primary antibody solution was removed and cells were washed 3 times with the Wash Buffer. 100 μl per well of AP- and HRP-labelled secondary antibodies was added, and the cells were incubated at room temperature for 1 hour. The cells were then washed 4 times with the Wash Buffer. For SDH-A detection, 100 μl per well AP Development Solution was added, and the cells were incubated at room temperature for 10 minutes. Cells were then read on CLARTO star^plus microplate reader (BMG Labtech) for kinetic readings at 405 nm for 5 minutes. […] The cells were then read on CLARTO star^plus microplate reader (BMG Labtech) for kinetic readings at 600 nm for 15 minutes.
(§4) In the table “A” represents values<1.0 μM; “B” represents values from >1.0 μM to ≤10.0 μM; “C” represents values from >10.0 μM to ≤50.0 μM; “D” represents values from >50.0 μM to ≤100.0 μM; and “E” represents values>100.0 μM.

[3] = tested on: SDH-A (succinate dehydrogenase-A); experiment: Mitochondria toxicity assay with PC3 cells, in-cell ELISA SDH-A; details: 5 days treatment
Description: as §1, §2, §3, §4

[4] = tested on: PC3 cells; experiment: Mitochondria toxicity assay with PC3 cells, cytotoxicity (Cell Titer Glo); details: Homo sapiens, PC-3, 120 h, 5 days treatment
Description: as §2
For the cytotoxicity assay, the medium from the cell viability plate was removed, 50 μL per well of Cell Titer Glo (Promega, G9683) was added. Then the cells incubated for 30 minutes at room temperature. Luminescence was read by Envision (PerkinElmer 2105).
as §4

Structure (SMILES)	IC50 [1]	IC50 [2]	IC50 [3]	IC50 [4]
Cc1cn([C@H]2C[C@H](O)[C@](CO)(CCl)O2)c(=O)nc1N [Compound 11, 4-amino-1-((2R,4S,5R)-5-(chloromethyl)-4-hydroxy-5-(hydroxymethyl)tetrahydrofuran-2-yl)-5-methylpyrimidin-2(1H)-one]	> 1 µM	> 100 µM	> 100 µM	> 100 µM
C#C[C@@H]1[C@H](n2ccc(N)nc2=O)O[C@@](CO)(CCl)[C@H]1O [Compound 17, 4-amino-1-((2R,3S,4S,5R)-5-(chloromethyl)-3-ethynyl-4-hydroxy-5-(hydroxymethyl)tetrahydrofuran-2-yl)pyrimidin-2(1H)-one]	> 1 µM	–	–	–
Nc1cnn([C@H]2C[C@H](O)[C@](CO)(CCl)O2)c(=O)n1 [Compound 18, 5-amino-2-((2R,4S,5R)-5-(chloromethyl)-4-hydroxy-5-(hydroxymethyl)tetrahydrofuran-2-yl)-1,2,4-triazin-3(2H)-one]	> 1 µM	–	–	–
C#C[C@@H]1[C@H](n2ccc(N)nc2=O)O[C@](C)(CO)[C@H]1O [Compound 20, 4-amino-1-((2R,3S,4S,5R)-3-ethynyl-4-hydroxy-5-(hydroxymethyl)-5-methyltetrahydrofuran-2-yl)pyrimidin-2(1H)-one]	> 1 µM	–	–	–
N#C[C@]1(CO)O[C@@H](n2cnc3c(N)nc(F)nc32)C[C@@H]1O [Compound 26, (2R,3S,5R)-5-(6-amino-2-fluoro-9H-purin-9-yl)-3-hydroxy-2-(hydroxymethyl) tetrahydrofuran-2-carbonitrile]	> 1 µM	50 to 100 µM	> 100 µM	> 100 µM
C#C[C@]1(CO)O[C@@H](n2cnc3c(N)ncnc32)C[C@@H]1O [Compound 27, (2R,3S,5R)-5-(6-amino-9H-purin-9-yl)-2-ethynyl-2-(hydroxymethyl)tetrahydrofuran-3-ol]	> 1 µM	> 100 µM	> 100 µM	> 100 µM
O=c1nc(NO)ccn1[C@@H]1O[C@@](CO)(CCl)[C@@H](O)[C@H]1F [Compound 28, 1-((2R,3R,4R,5R)-5-(chloromethyl)-3-fluoro-4-hydroxy-5-(hydroxymethyl)tetrahydrofuran-2-yl)-4-(hydroxyamino)pyrimidin-2(1H)-one]	> 1 µM	–	–	–
O=c1ccn([C@@H]2O[C@@](CO)(CCl)[C@@H](O)[C@H]2F)c(=O)[nH]1 [Compound 29, 1-((2R,3R,4R,5R)-5-(chloromethyl)-3-fluoro-4-hydroxy-5-(hydroxymethyl)tetrahydrofuran-2-yl)pyrimidine-2,4(1H,3H)-dione]	> 1 µM	–	–	–
C#C[C@]1(CO)O[C@@H](n2ccc(N)nc2=O)[C@H](F)[C@@H]1O [Compound 32, 4-amino-1-((2R,3R,4R,5R)-5-ethynyl-3-fluoro-4-hydroxy-5-(hydroxymethyl)tetrahydrofuran-2-yl)pyrimidin-2(1H)-one]	> 1 µM	–	–	–
C#C[C@]1(CO)O[C@@H](n2ccc(=O)[nH]c2=O)[C@H](F)[C@@H]1O [Compound 33, 1-((2R,3R,4R,5R)-5-ethynyl-3-fluoro-4-hydroxy-5-(hydroxymethyl)tetrahydro-furan-2-yl)pyrimidine-2,4(1H,3H)-dione]	> 1 µM	–	–	–
O=c1ccn([C@H]2C[C@H](O)[C@](CO)(CCl)O2)c(=O)[nH]1 [Compound 34, 1-((2R,4S,5R)-5-(chloromethyl)-4-hydroxy-5-(hydroxymethyl)tetrahydro-furan-2-yl)pyrimidine-2,4(1H,3H)-dione]	> 1 µM	–	–	–
C#C[C@]1(CO)O[C@@H](n2ccc(N)nc2=O)C[C@@H]1O [Compound 41, 4-amino-1-((2R,4S,5R)-5-ethynyl-4-hydroxy-5-(hydroxymethyl)tetrahydro-furan-2-yl)pyrimidin-2(1H)-one]	> 1 µM	–	–	–

Continued, in another order:

IC50 [1]	Structure (SMILES)	IC50 [2]	IC50 [3]	IC50 [4]
> 1 µM	CC#C[C@]1(CO)O[C@@H](n2cnc3c(N)nc(F)nc32)C[C@@H]1O [Compound 1, (2R,3S,5R)-5-(6-amino-2-fluoro-9H-purin-9-yl)-2-(hydroxymethyl)-2-(prop-1-yn-1-yl)tetrahydrofuran-3-ol]	–	–	–
> 1 µM	Cc1cn([C@H]2C[C@H](O)[C@](CO)(CCl)O2)c(=O)[nH]c1=O [Compound 4, 1-((2R,4S,5R)-5-(chloromethyl)-4-hydroxy-5-(hydroxymethyl)tetrahydrofuran-2-yl)-5-methylpyrimidine-2,4(1H,3H)-dione]	> 100 µM	> 100 µM	> 100 µM
> 1 µM	C#C[C@]1(CO)O[C@@H](n2cnc3c(N)nc(Cl)nc32)[C@@H](F)[C@@H]1O [Compound 5, (2R,3R,4S,5R)-5-(6-amino-2-chloro-9H-purin-9-yl)-2-ethynyl-4-fluoro-2-(hydroxymethyl)tetrahydrofuran-3-ol]	10 to 50 µM	> 100 µM	> 100 µM
> 1 µM	O=c1nc(NO)ccn1[C@H]1C[C@H](O)[C@](CO)(CCl)O1 [Compound 6, 1-((2R,4S,5R)-5-(chloromethyl)-4-hydroxy-5-(hydroxymethyl)tetrahydrofuran-2-yl)-4-(hydroxyamino)pyrimidin-2(1H)-one]	–	–	–
> 1 µM	Cc1cn([C@H]2C[C@H](F)[C@](CO)(CCl)O2)c(=O)[nH]c1=O [Compound 7, 1-((2R,4S,5R)-5-(chloromethyl)-4-fluoro-5-(hydroxymethyl)tetrahydrofuran-2-yl)-5-methylpyrimidine-2,4(1H,3H)-dione]	> 100 µM	> 100 µM	> 100 µM
> 1 µM	Nc1nc(F)nc2c1ncn2[C@H]1C[C@H](O)[C@](CO)(CCl)O1 [Compound 8, (2R,3S,5R)-5-(6-amino-2-fluoro-9H-purin-9-yl)-2-(chloromethyl)-2-(hydroxymethyl)tetrahydrofuran-3-ol]	1 to 10 µM	1 to 10 µM	1 to 10 µM
> 1 µM	Cc1cn([C@@H]2O[C@@](CO)(CCl)[C@@H](O)[C@H]2F)c(=O)[nH]c1=O [Compound 9, 1-((2R,3R,4R,5R)-5-(chloromethyl)-3-fluoro-4-hydroxy-5-(hydroxymethyl)tetrahydrofuran-2-yl)-5-methylpyrimidine-2,4(1H,3H)-dione]	> 100 µM	> 100 µM	> 100 µM
0.05 to 0.1 µM	Nc1nc(=O)n([C@H]2C[C@H](O)[C@](CO)(CF)O2)cc1F [Compound 22, 4-amino-5-fluoro-1-((2R,4S,5R)-5-(fluoromethyl)-4-hydroxy-5-(hydroxymethyl)tetrahydrofuran-2-yl)pyrimidin-2(1H)-one]	> 100 µM	> 100 µM	> 100 µM
